From article PMC5794461, “Kinetic analysis of the isoleucyl‐tRNA synthetase mechanism: the next reaction cycle can start before the previous one ends” (FEBS Open Bio, 2017) come the findings set out here.

The target in this assay is T1, isoleucyl-tRNA synthetase (IleRS) (Escherichia coli, UniProt P00956).
T1 construct: gene ileS; full-length native enzyme purified from E. coli B; one-subunit enzyme
In words: global best fit of steady-state ATP-PPi exchange and tRNA aminoacylation rates. In kind it is biochemical. To be noted: AMP·E (segment 1), competitive with MgATP; pH 7.4, 30 °C, Mg-acetate, 50 mM K-acetate, no chloride; unreliable: fitted range open above (360 <). From the text:
global best fit of steady-state ATP-PPi exchange and tRNA aminoacylation rates on isoleucyl-tRNA synthetase (IleRS)

T1 sequence (P00956 2-938): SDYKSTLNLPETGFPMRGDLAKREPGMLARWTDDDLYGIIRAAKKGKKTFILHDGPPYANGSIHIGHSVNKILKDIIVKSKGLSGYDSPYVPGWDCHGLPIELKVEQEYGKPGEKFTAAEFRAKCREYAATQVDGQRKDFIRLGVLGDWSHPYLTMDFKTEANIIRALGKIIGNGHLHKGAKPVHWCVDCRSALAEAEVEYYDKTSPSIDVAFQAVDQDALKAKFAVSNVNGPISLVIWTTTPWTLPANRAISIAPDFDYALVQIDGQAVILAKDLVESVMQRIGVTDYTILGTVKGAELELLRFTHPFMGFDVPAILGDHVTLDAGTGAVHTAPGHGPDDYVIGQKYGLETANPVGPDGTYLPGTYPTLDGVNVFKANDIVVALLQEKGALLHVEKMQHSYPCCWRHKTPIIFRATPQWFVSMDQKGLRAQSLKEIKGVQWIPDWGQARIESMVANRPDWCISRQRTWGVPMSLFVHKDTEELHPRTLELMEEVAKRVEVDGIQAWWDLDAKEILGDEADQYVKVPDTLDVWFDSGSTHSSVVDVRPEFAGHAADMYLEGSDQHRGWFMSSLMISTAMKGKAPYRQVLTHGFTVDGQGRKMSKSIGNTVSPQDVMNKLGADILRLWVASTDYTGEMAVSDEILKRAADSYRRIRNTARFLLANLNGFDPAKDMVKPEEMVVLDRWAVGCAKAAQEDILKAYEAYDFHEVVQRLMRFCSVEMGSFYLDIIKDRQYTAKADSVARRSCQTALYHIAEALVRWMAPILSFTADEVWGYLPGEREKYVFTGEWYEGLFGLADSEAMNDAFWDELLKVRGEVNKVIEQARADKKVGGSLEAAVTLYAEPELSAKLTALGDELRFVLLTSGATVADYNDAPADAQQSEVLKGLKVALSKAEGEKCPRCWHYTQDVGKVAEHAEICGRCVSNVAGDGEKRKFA

Regarding `Nc1ncnc2c1ncn2[C@@H]1O[C@H](COP(=O)(O)O)[C@@H](O)[C@H]1O` [AMP], the Value stood at 705 µM.
